The assay in a line: Human sweat malodor neutralization (jar method), headspace rated by trained panel using Magnitude Estimation. Particulars: single fragrance ingredient; % Reduction=100×[1-(malodor intensity/total intensity)]. The procedure:
Malodor neutralization is evaluated by placing a specified amount of malodor into an uncapped, 1 ounce wide-mouth jar. This jar is placed into an 8 ounce wide-mouth jar containing a specified amount of test material or finished fragrance. The quantities of malodor and fragrance are dependent on the specific malodor model used. The 8 ounce jar is capped and allowed to equilibrate. The panelists then rate the headspace for (1) total intensity, (2) malodor intensity and (3) overall like/dislike (hedonics). They are provided with an identified sample of malodor as a reference. Each group of samples presented to the panel contains an unidentified positive control (a fragrance material with no malodor), two unidentified negative controls (malodor with no fragrance) and up to twelve test samples (each fragrance is presented in duplicate or triplicate).
It is to be noted that evaluations are carried out by panelists who have been extensively screened for their olfactory acuity and trained in the method of evaluation (Magnitude Estimation). Panelist performance is constantly monitored and reviewed.
All samples are coded with random 5-digit numbers. Panelists are instructed to select samples from the test set and evaluate them in a random order.
The results of these experiments are expressed in terms of malodor reduction (neutralization), change in overall intensity and improvement in hedonics.
The percent malodor reduction is calculated as:
% Reduction=100×[1-(malodor intensity/total intensity)]
or shown thusly: [formula]
wherein wherein RMOL represents malodor reduction; iMO is malodor intensity; and iT represents total intensity.
The following protocol has been developed to determine the level of odor neutralization:
1. A predetermined quantity of the malodor model is measured with a micropipette into an uncapped 1 oz. wide-mouth jar. This jar is subsequently placed into an 8 oz. wide-mouth jar containing a predetermined quantity of the test material. The 8 oz. jar is capped and allowed to equilibrate prior to evaluation;
2. […] Each judge is also presented with an identified sample of the malodor in order to reinforce the malodor discrimination task;
3. Each of the judges rate the headspace for (a) total odor intensity, (b) malodor intensity and (c) the overall like/dislike (hedonics) of the sample; and […]
Take `CC(=O)c1ccc2ccccc2c1` [Methyl β-naphthalene ketone, methyl β-naphthyl ketone]: the “% Human Sweat Malodor Coverage” value is reported as 96% reduction. As to “mixture of hexahydro4,7-methanoinden-5-yl propionate and hexahydro-4,7-methanoinden-6-yl propionate [CYCLAPROP ™]”, the “% Human Sweat Malodor Coverage” value is on record as 91% reduction.

Take `CC(=O)C(C)=CC1C(C)=CCCC1(C)C` (centres unmarked) [γ-Methyl ionone, 4-(2,6,6-trimethyl-2-cyclohexen-1-yl)-3-methyl-3-buten-2-one]: the “% Human Sweat Malodor Coverage” value is 93% reduction. The value for `COc1ccc2ccccc2c1` [β-Naphthyl methyl ether, β-naphthyl methyl ether] was 92% reduction; that for `CC(=O)CCc1ccccc1` [Benzyl acetone, benzyl acetone] was 96% reduction.
